Assay: xn = mol fraction of the nth substance listed
Settings: 100 kPa

CC(=O)[O-].CCCC[n+]1ccn(C)c1 + O
viscosity [mPa·s]
Settings | 278.15 K | 283.15 K | 293.15 K | 298.15 K | 303.15 K | 313.15 K | 323.15 K | 333.15 K | 343.15 K | 353.15 K
x2 = 0.012 | 2390 | 1403 | 562 | 375 | 260 | 136.6 | 79.4 | – | 31.37 | 21.85
x2 = 0.0173 | 2429 | 1425 | 567 | 380 | 263 | – | 78 | 48.1 | 31.4 | 22.07

— a compilation of properties of binary mixtures (doi:10.1021/acs.jced.9b01018)
